Here are results for 25 compounds from patent publication US12350270B2, “Antimalarial agents” (Merck Sharp & Dohme LLC, priority 2019, dated 2025).

The test system of this assay is parasites (ring stage, in human red blood cell culture). Kind of assay: Parasite LDH growth assay (antiparasite potency, Parasite Assay). The class given is cell-based, Plasmodium falciparum. Conditions: Plasmodium falciparum, Erythrocyte, 72 h, 0.7% rings, 2% haematocrit, 72 hours at 37° C., LDH readout of parasite growth. A digest of the protocol: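 Ring-stage parasites at 0.7% parasitemia and 2% haematocrit, in RPMI-Hepes/bicarbonate with 5% heat-inactivated human serum and 0.5% albumax, were added to compound-containing medium. Cultures grew 72 h at 37 °C in gassed humidified boxes. Plates were then frozen overnight at −80 °C, thawed 4 h, and growth was measured by LDH assay.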
A word on the EC50: it is the concentration needed to bring the measured effect to its halfway point. Turning to `CC1(C)CC(=O)N([C@@H]2CCOc3ccc(C(=O)N[C@@H]4c5cc(Cl)ccc5OC[C@H]4O)cc32)C(=N)N1` [Example 153, (4R)-N-[(3S,4R)-6-chloro-3-hydroxy-chroman-4-yl]-4-(2-imino-4,4-dimethyl-6-oxo-hexahydropyrimidin-1-yl)chromane-6-carboxamide], the half-maximal effective concentration (EC50) is 11.5 nM. For the compound `CCC1(CC)CC(=O)N([C@@H]2CCOc3ccc(C(=O)N[C@@H]4c5ccccc5C5(CC5)[C@H]4O)cc32)C(=N)N1` [Example 154, (4R)-4-(4,4-diethyl-2-imino-6-oxo-hexahydropyrimidin-1-yl)-N-[(1′R,2′R)-2′-hydroxyspiro[cyclopropane-1,3′-indane]-1′-yl]chromane-6-carboxamide], the concentration giving a half-maximal response (EC50) came to 0.7 nM. As to `CCC1(CC)CC(=O)N([C@@H]2CCOc3ccc(C(=O)N[C@H]4c5ccccc5C5(CC5)[C@@H]4O)cc32)C(=N)N1` [Example 155, (4R)-4-(4,4-diethyl-2-imino-6-oxo-hexahydropyrimidin-1-yl)-N-[(1′S,2′S)-2′-hydroxyspiro[cyclopropane-1,3′-indane]-1′-yl]chromane-6-carboxamide], a half-maximal effect (EC50) was put at 82.5 nM. Against the preceding compound, the EC50 is about 120-fold higher. Under `CCC1(CC)CC(=O)N([C@@H]2CCCc3ccc(C(=O)N[C@H]4CC(C)(C)Oc5ccccc54)cc32)C(=N)N1` [Example 156, (4R)-4-(4,4-diethyl-2-imino-6-oxo-hexahydropyrimidin-1-yl)-N-[(4S)-2,2-dimethylchroman-4-yl]tetralin-6-carboxamide] stands 1.1 nM. The value for `CCC1(CC)CC(=O)N([C@@H]2C[C@@H](OC)c3ccc(C(=O)N[C@@H]4c5ccccc5C[C@@]4(C)O)cc32)C(=N)N1` [Example 157, (1R,3R)-3-(4,4-diethyl-2-imino-6-oxo-hexahydropyrimidin-1-yl)-N-[(1R,2R)-2-hydroxy-2-methyl-indan-1-yl]-1-methoxy-indane-5-carboxamide] was 19.9 nM. The value for `CCC1(CC)CC(=O)N([C@@H]2C[C@H](OC)c3ccc(C(=O)N[C@@H]4c5ccccc5C[C@@]4(C)O)cc32)C(=N)N1` [Example 158, (1S,3R)-3-(4,4-diethyl-2-imino-6-oxo-hexahydropyrimidin-1-yl)-N-[(1R,2R)-2-hydroxy-2-methyl-indan-1-yl]-1-methoxy-indane-5-carboxamide] was 0.9 nM; that for `CCC1(CC)CC(=O)N([C@@H]2CCc3ccc(C(=O)N[C@@H]4c5ccccc5OC(C)(C)[C@H]4O)cc32)C(=N)N1` [Example 159, (3R)-3-(4,4-diethyl-2-imino-6-oxo-hexahydropyrimidin-1-yl)-N-[(3S,4R)-3-hydroxy-2,2-dimethyl-chroman-4-yl]indane-5-carboxamide] was 0.5 nM; that for `CC1(C)CC(=O)N([C@@H]2CC(C)(C)c3ccc(C(=O)N[C@@H]4c5ccccc5OC(C)(C)[C@H]4O)cc32)C(=N)N1` [Example 160, (3R)-N-[(3S,4R)-3-hydroxy-2,2-dimethyl-chroman-4-yl]-3-(2-imino-4,4-dimethyl-6-oxo-hexahydropyrimidin-1-yl)-1,1-dimethyl-indane-5-carboxamide] was 8.3 nM. In turn, `CCC1(CC)CC(=O)N(C2CCCc3ccc(C(=O)N[C@@H]4c5ccccc5OC[C@@]4(C)O)cc32)C(=N)N1` (stereo partly drawn) [Example 161, 8-(4,4-diethyl-2-imino-6-oxotetrahydropyrimidin-1(2H)-yl)-N-((3S,4R)-3-hydroxy-3-methylchroman-4-yl)-5,6,7,8-tetrahydronaphthalene-2-carboxamide] showed an EC50 of 0.8 nM. The value for `CC1(C)CC(=O)N([C@H]2c3cc(C(=O)N[C@@H]4c5ccccc5OC(C)(C)[C@H]4O)ccc3CC2(C)C)C(=N)N1` [Example 162, (3R)-N-[(3S,4R)-3-hydroxy-2,2-dimethyl-chroman-4-yl]-3-(2-imino-4,4-dimethyl-6-oxo-hexahydropyrimidin-1-yl)-2,2-dimethyl-indane-5-carboxamide] was 7.5 nM; that for `CCC1(CC)CC(=O)N([C@H]2c3cc(C(=O)N[C@@H]4c5ccccc5C[C@@]4(C)O)ccc3OC2(C)C)C(=N)N1` [Example 163, (3S)-3-(4,4-diethyl-2-imino-6-oxo-hexahydropyrimidin-1-yl)-N-[(1R,2R)-2-hydroxy-2-methyl-indan-1-yl]-2,2-dimethyl-3H-benzofuran-5-carboxamide] was 8.4 nM; that for `CCC1(CC)CC(=O)N([C@@H]2C[C@@H](C)Oc3ccc(C(=O)N[C@@H]4c5ccccc5C[C@@]4(C)O)cc32)C(=N)N1` [Example 164, (2R,4R)-4-(4,4-diethyl-2-imino-6-oxo-hexahydropyrimidin-1-yl)-N-[(1R,2R)-2-hydroxy-2-methyl-indan-1-yl]-2-methyl-chromane-6-carboxamide] was 2.4 nM.

Turning to `CCC1(CC)CC(=O)N([C@H]2c3cc(C(=O)N[C@@H]4c5ccccc5C[C@H]4O)ccc3CC[C@@H]2OC)C(=N)N1` [Example 165, (3S,4S)-4-(4,4-diethyl-2-imino-6-oxo-hexahydropyrimidin-1-yl)-N-[(1R,2R)-2-hydroxyindan-1-yl]-3-methoxy-tetralin-6-carboxamide], the EC50 was determined as 3.4 nM. This EC50 and that of the compound before are within 1.5-fold of each other. The value for `CC[C@]1(C)CC(=O)N([C@@H]2c3cc(C(=O)N[C@@H]4c5ccccc5OC(C)(C)[C@H]4O)ccc3C[C@@H]2C)C(=N)N1` [Example 166, (2S,3S)-3-[(4R)-4-ethyl-2-imino-4-methyl-6-oxo-hexahydropyrimidin-1-yl]-N-[(3S,4R)-3-hydroxy-2,2-dimethyl-chroman-4-yl]-2-methyl-indane-5-carboxamide] was 154 nM. Under `CC[C@]1(C)CC(=O)N([C@@H]2c3cc(C(=O)N[C@@H]4c5ccccc5OC(C)(C)[C@H]4O)ccc3C[C@H]2C)C(=N)N1` [Example 167, (2R,3S)-3-[(4R)-4-ethyl-2-imino-4-methyl-6-oxo-hexahydropyrimidin-1-yl]-N-[(3S,4R)-3-hydroxy-2,2-dimethyl-chroman-4-yl]-2-methyl-indane-5-carboxamide] stands 250 nM. The value for `CC[C@]1(C)CC(=O)N([C@H]2c3cc(C(=O)N[C@@H]4c5ccccc5OC(C)(C)[C@H]4O)ccc3C[C@H]2C)C(=N)N1` [Example 168, (2R,3R)-3-[(4R)-4-ethyl-2-imino-4-methyl-6-oxo-hexahydropyrimidin-1-yl]-N-[(3S,4R)-3-hydroxy-2,2-dimethyl-chroman-4-yl]-2-methyl-indane-5-carboxamide] was 0.4 nM; that for `CC[C@]1(C)CC(=O)N([C@H]2c3cc(C(=O)N[C@@H]4c5ccccc5OC(C)(C)[C@H]4O)ccc3C[C@@H]2C)C(=N)N1` [Example 169, (2S,3R)-3-[(4R)-4-ethyl-2-imino-4-methyl-6-oxo-hexahydropyrimidin-1-yl]-N-[(3S,4R)-3-hydroxy-2,2-dimethyl-chroman-4-yl]-2-methyl-indane-5-carboxamide] was 0.3 nM. `CC[C@]1(C)CC(=O)N([C@H]2C[C@H](C)c3ccc(C(=O)N[C@@H]4c5ccccc5OC(C)(C)[C@H]4O)cc32)C(=N)N1` [Example 170, (1S,3S)-3-[(4R)-4-ethyl-2-imino-4-methyl-6-oxo-hexahydropyrimidin-1-yl]-N-[(3S,4R)-3-hydroxy-2,2-dimethyl-chroman-4-yl]-1-methyl-indane-5-carboxamide]: the half-maximal effective concentration (EC50) worked out at 184 nM.

In the case of `CC[C@]1(C)CC(=O)N([C@@H]2C[C@@H](C)c3ccc(C(=O)N[C@@H]4c5ccccc5OC(C)(C)[C@H]4O)cc32)C(=N)N1` [Example 171, (1R,3R)-3-[(4R)-4-ethyl-2-imino-4-methyl-6-oxo-hexahydropyrimidin-1-yl]-N-[(3S,4R)-3-hydroxy-2,2-dimethyl-chroman-4-yl]-1-methyl-indane-5-carboxamide], the concentration for a half-maximal effect (EC50) turned out to be 0.7 nM. As to `CC1(C)CC(=O)N([C@@H]2CCOc3ccc(C(=O)N[C@@H]4c5ccccc5OC(C)(C)[C@@]4(C)O)cc32)C(=N)N1` [Example 172, (4R)-N-[(3S,4R)-3-hydroxy-2,2,3-trimethyl-chroman-4-yl]-4-(2-imino-4,4-dimethyl-6-oxo-hexahydropyrimidin-1-yl)chromane-6-carboxamide], a half-maximal response (EC50) required 0.9 nM. Under `CCC1(CC)CC(=O)N([C@@H]2CCOc3ccc(C(=O)N[C@@H]4c5ccccc5OC[C@H]4OC)cc32)C(=N)N1` [Example 173, (4R)-4-(4,4-diethyl-2-imino-6-oxo-hexahydropyrimidin-1-yl)-N-[(3S,4R)-3-methoxychroman-4-yl]chromane-6-carboxamide] stands 2.8 nM; under `CC[C@]1(C)CC(=O)N([C@H]2c3cc(C(=O)N[C@@H]4c5ccccc5C[C@H]4O)ccc3OC[C@@H]2COC)C(=N)N1` [Example 174, (3S,4R)-4-[(4R)-4-ethyl-2-imino-4-methyl-6-oxo-hexahydropyrimidin-1-yl]-N-[(1R,2R)-2-hydroxyindan-1-yl]-3-(methoxymethyl)chromane-6-carboxamide], 1.9 nM; under `COCC1(C)CC(N2C(=N)NC(C)(C)CC2=O)c2cc(C(=O)N[C@@H]3c4ccccc4C[C@H]3O)ccc2O1` (stereo partly drawn) [Example 175, N-[(1R,2R)-2-hydroxyindan-1-yl]-4-(2-imino-4,4-dimethyl-6-oxo-hexahydropyrimidin-1-yl)-2-(methoxymethyl)-2-methyl-chromane-6-carboxamide], 31 nM. Under `CC[C@@]1(C)CC(=O)N(C2c3cc(C(=O)N[C@H]4CC(C)(C)Oc5ccccc54)ccc3OCC2O)C(=N)N1` (stereo partly drawn) [Example 177, N-[(4S)-2,2-dimethylchroman-4-yl]-4-[(4S)-4-ethyl-2-imino-4-methyl-6-oxo-hexahydropyrimidin-1-yl]-3-hydroxy-chromane-6-carboxamide] stands 66.9 nM; under `CC[C@]1(C)CC(=O)N(C2c3cc(C(=O)N[C@@H]4c5ccccc5C[C@@]4(C)O)ccc3OCC2OC)C(=N)N1` (stereo partly drawn) [Example 179, 4-[(4R)-4-ethyl-2-imino-4-methyl-6-oxo-hexahydropyrimidin-1-yl]-N-[(1R,2R)-2-hydroxy-2-methyl-indan-1-yl]-3-methoxy-chromane-6-carboxamide], 65.4 nM.
